The text below walks through data of patent US20100311714A1, “1H-IMIDAZO[4,5-c]QUINOLINONE COMPOUNDS” (priority 2009, published 2010).

The test has as its system PKB Ser473 phosphorylation in Rat1-myr-HA-p110 beta cells. The experiment in a line: Reverse protein array, PKB Ser473 phosphorylation in Rat1-myr-HA-p110 beta cells. Type of test: cell-based. The following applies: Rattus norvegicus, 0.5 h, 30 minutes compound incubation, read-out: p-PKB/IC50_beta.
Take `COc1ncccc1-n1c(=O)n(C)c2cnc3ccc(-c4cnc5[nH]ccc5c4)cc3c21` [Example 1.2, 1-(2-Methoxy-pyridin-3-yl)-3-methyl-8-(1H-pyrrolo[2,3-b]pyridin-5-yl)-1,3-dihydro-imidazo[4,5-c]quinolin-2-one]: the IC50 was under 4.57 nM.

On to `COc1ncccc1-n1c(=O)n(C)c2cnc3ccc(-c4ccc(C(N)=O)cc4)cc3c21` [Example 1.6, 4-[1-(2-Methoxy-pyridin-3-yl)-3-methyl-2-oxo-2,3-dihydro-1H-imidazo[4,5-c]quinolin-8-yl]-benzamide], for which the IC50 was determined as 16.9 nM.

`Cc1ncccc1-n1c(=O)n(C)c2cnc3ccc(-c4ccc(C(N)=O)cc4)cc3c21` [Example 2.3, 4-[3-Methyl-1-(2-methyl-pyridin-3-yl)-2-oxo-2,3-dihydro-1H-imidazo[4,5-c]quinolin-8-yl]-benzamide]: the IC50 came out at 15.9 nM.

For `CCOc1ncc(-c2ccc3ncc4c(c3c2)n(-c2cccnc2C)c(=O)n4C)cn1` [Example 2.5, 8-(2-Ethoxy-pyrimidin-5-yl)-3-methyl-1-(2-methyl-pyridin-3-yl)-1,3-dihydro-imidazo[4,5-c]quinolin-2-one], the IC50 came out at 53.8 nM.

As for `Cc1ncccc1-n1c(=O)n(C)c2cnc3ccc(-c4ccc(CO)nc4)cc3c21` [Example 2.6, 8-(6-Hydroxymethyl-pyridin-3-yl)-3-methyl-1-(2-methyl-pyridin-3-yl)-1,3-dihydro-imidazo[4,5-c]quinolin-2-one], the IC50 came out at 72.9 nM.

With `Cc1ncccc1-n1c(=O)n(C)c2cnc3ccc(-c4ccc(N)nc4)cc3c21` [Example 2.7, 8-(6-Amino-pyridin-3-yl)-3-methyl-1-(2-methyl-pyridin-3-yl)-1,3-dihydro-imidazo[4,5-c]quinolin-2-one], the IC50 was 19.2 nM.

For `COc1ccc(-c2ccc3ncc4c(c3c2)n(-c2cccnc2C)c(=O)n4C)cc1OC` [Example 2.9, 8-(3,4-Dimethoxy-phenyl)-3-methyl-1-(2-methyl-pyridin-3-yl)-1,3-dihydro-imidazo[4,5-c]quinolin-2-one], the IC50 is 15.7 nM.

On to `Cc1ncccc1-n1c(=O)n(C)c2cnc3ccc(-c4ccc(OCCCN(C)C)nc4)cc3c21` [Example 2.10, 8-[6-(3-Dimethylamino-propoxy)-pyridin-3-yl]-3-methyl-1-(2-methyl-pyridin-3-yl)-1,3-dihydro-imidazo[4,5-c]quinolin-2-one], for which the IC50 is 84.2 nM.

For the compound `Cc1ncccc1-n1c(=O)n(C)c2cnc3ccc(-c4cnc(N)c(C(F)(F)F)c4)cc3c21` [Example 2.11, 8-(6-Amino-5-trifluoromethyl-pyridin-3-yl)-3-methyl-1-(2-methyl-pyridin-3-yl)-1,3-dihydro-imidazo[4,5-c]quinolin-2-one], the IC50 stood at 9.92 nM.

Regarding `COc1ccc(-c2ccc3ncc4c(c3c2)n(-c2cccnc2C)c(=O)n4C)cn1` [Example 2.12, 8-(6-Methoxy-pyridin-3-yl)-3-methyl-1-(2-methyl-pyridin-3-yl)-1,3-dihydro-imidazo[4,5-c]quinolin-2-one], the IC50 came out at 19.8 nM.

For `CNc1ccc(-c2ccc3ncc4c(c3c2)n(-c2cccnc2C)c(=O)n4C)cn1` [Example 2.13, 3-Methyl-8-(6-methylamino-pyridin-3-yl)-1-(2-methyl-pyridin-3-yl)-1,3-dihydro-imidazo[4,5-c]quinolin-2-one], the IC50 amounted to 18.7 nM.

Turning to `Cc1ncccc1-n1c(=O)n(C)c2cnc3ccc(-c4cnc(N(C)C)nc4)cc3c21` [Example 2.15, 8-(2-Dimethylamino-pyrimidin-5-yl)-3-methyl-1-(2-methyl-pyridin-3-yl)-1,3-dihydro-imidazo[4,5-c]quinolin-2-one], the IC50 came to 101 nM.

On to `Cc1ncccc1-n1c(=O)n(C)c2cnc3ccc(-c4cncc(NC(C)C)c4)cc3c21` [Example 2.24, 8-(5-Isopropylamino-pyridin-3-yl)-3-methyl-1-(2-methyl-pyridin-3-yl)-1,3-dihydro-imidazo[4,5-c]quinolin-2-one], for which the IC50 came out at 16.4 nM.

For `Cc1ncccc1-n1c(=O)n(C)c2cnc3ccc(-c4cncc(N)c4)cc3c21` [Example 2.25, 8-(5-Amino-pyridin-3-yl)-3-methyl-1-(2-methyl-pyridin-3-yl)-1,3-dihydro-imidazo[4,5-c]quinolin-2-one], the IC50 stood at 58.7 nM.

Turning to `CNc1cncc(-c2ccc3ncc4c(c3c2)n(-c2cccnc2C)c(=O)n4C)c1` [Example 2.26, 3-Methyl-8-(5-methylamino-pyridin-3-yl)-1-(2-methyl-pyridin-3-yl)-1,3-dihydro-imidazo[4,5-c]quinolin-2-one], the IC50 turned out to be 7.4 nM.

For `COc1cc(-c2ccc3ncc4c(c3c2)n(-c2cccnc2C)c(=O)n4C)cnc1C(OC)OC` [Example 2.27, 8-(6-Dimethoxymethyl-5-methoxy-pyridin-3-yl)-3-methyl-1-(2-methyl-pyridin-3-yl)-1,3-dihydro-imidazo[4,5-c]quinolin-2-one], the IC50 amounted to 247 nM.

As for `CCOc1cc(-c2ccc3ncc4c(c3c2)n(-c2cccnc2C)c(=O)n4C)cnc1COC` [Example 2.28, 8-(5-Ethoxy-6-methoxymethyl-pyridin-3-yl)-3-methyl-1-(2-methyl-pyridin-3-yl)-1,3-dihydro-imidazo[4,5-c]quinolin-2-one], the IC50 turned out to be 61 nM.

Consider `Cc1ncccc1-n1c(=O)n(C)c2cnc3ccc(-c4cncc(N5CCC5)c4)cc3c21` [Example 2.29, 8-(5-Azetidin-1-yl-pyridin-3-yl)-3-methyl-1-(2-methyl-pyridin-3-yl)-1,3-dihydro-imidazo[4,5-c]quinolin-2-one], for which the IC50 came out at 19.7 nM.

For the compound `CCNc1cc(-c2ccc3ncc4c(c3c2)n(-c2cccnc2C)c(=O)n4C)cnc1CO` [Example 2.31, 8-(5-Ethylamino-6-hydroxymethyl-pyridin-3-yl)-3-methyl-1-(2-methyl-pyridin-3-yl)-1,3-dihydro-imidazo[4,5-c]quinolin-2-one], the IC50 was 5.7 nM.

For the compound `CNc1cc(-c2ccc3ncc4c(c3c2)n(-c2cccnc2C)c(=O)n4C)cnc1C` [Example 2.32, 3-Methyl-8-(6-methyl-5-methylamino-pyridin-3-yl)-1-(2-methyl-pyridin-3-yl)-1,3-dihydro-imidazo[4,5-c]quinolin-2-one], the IC50 was 6 nM.

Turning to `Cc1cccnc1-n1c(=O)n(C)c2cnc3ccc(-c4ccc(C(N)=O)cc4)cc3c21` [Example 3.3, 4-[3-Methyl-1-(3-methyl-pyridin-2-yl)-2-oxo-2,3-dihydro-1H-imidazo[4,5-c]quinolin-8-yl]-benzamide], the IC50 is 259 nM.

Consider `CNc1ncc(-c2ccc3ncc4c(c3c2)n(-c2ncccc2C)c(=O)n4C)cn1` [Example 3.4, 3-Methyl-8-(2-methylamino-pyrimidin-5-yl)-1-(3-methyl-pyridin-2-yl)-1,3-dihydro-imidazo[4,5-c]quinolin-2-one], for which the IC50 is 527 nM.

Take `CNC(=O)c1ccc(-c2ccc3ncc4c(c3c2)n(-c2ncccc2C)c(=O)n4C)cc1` [Example 3.5, N-Methyl-4-[3-methyl-1-(3-methyl-pyridin-2-yl)-2-oxo-2,3-dihydro-1H-imidazo[4,5-c]quinolin-8-yl]-benzamide]: the IC50 stood at 131 nM.

Consider `CCOc1ccc(-c2ccc3ncc4c(c3c2)n(-c2ncccc2C)c(=O)n4C)cn1` [Example 3.6, 8-(6-Ethoxy-pyridin-3-yl)-3-methyl-1-(3-methyl-pyridin-2-yl)-1,3-dihydro-imidazo[4,5-c]quinolin-2-one], for which the IC50 stood at 546 nM.

`Cc1cccnc1-n1c(=O)n(C)c2cnc3ccc(-c4ccc(CO)nc4)cc3c21` [Example 3.9, 8-(6-Hydroxymethyl-pyridin-3-yl)-3-methyl-1-(3-methyl-pyridin-2-yl)-1,3-dihydro-imidazo[4,5-c]quinolin-2-one]: the IC50 came to 689 nM.

For the compound `COc1ccc(-c2ccc3ncc4c(c3c2)n(-c2ncccc2C)c(=O)n4C)cc1OC` [Example 3.10, 8-(3,4-Dimethoxy-phenyl)-3-methyl-1-(3-methyl-pyridin-2-yl)-1,3-dihydro-imidazo[4,5-c]quinolin-2-one], the IC50 is 516 nM.

For `Cc1cccnc1-n1c(=O)n(C)c2cnc3ccc(-c4cnc(N)c(C(F)(F)F)c4)cc3c21` [Example 3.12, 8-(6-Amino-5-trifluoromethyl-pyridin-3-yl)-3-methyl-1-(3-methyl-pyridin-2-yl)-1,3-dihydro-imidazo[4,5-c]quinolin-2-one], the IC50 is 172 nM.

For `Cc1ccncc1-n1c(=O)n(C)c2cnc3ccc(-c4ccc(CO)nc4)cc3c21` [Example 4.1, 8-(6-Hydroxymethyl-pyridin-3-yl)-3-methyl-1-(4-methyl-pyridin-3-yl)-1,3-dihydro-imidazo[4,5-c]quinolin-2-one], the IC50 came to 694 nM.

Regarding `CCOc1ccc(-c2ccc3ncc4c(c3c2)n(-c2cnccc2C)c(=O)n4C)cn1` [Example 4.2, 8-(6-Ethoxy-pyridin-3-yl)-3-methyl-1-(4-methyl-pyridin-3-yl)-1,3-dihydro-imidazo[4,5-c]quinolin-2-one], the IC50 came out at 149 nM.

Consider `COc1ccc(-c2ccc3ncc4c(c3c2)n(-c2cnccc2C)c(=O)n4C)cn1` [Example 4.3, 8-(6-Methoxy-pyridin-3-yl)-3-methyl-1-(4-methyl-pyridin-3-yl)-1,3-dihydro-imidazo[4,5-c]quinolin-2-one], for which the IC50 is 363 nM.

As to `Cn1c(=O)n(-c2cccnc2)c2c3cc(-c4ccc(CO)nc4)ccc3ncc21` [Example 5.1, 8-(6-Hydroxymethyl-pyridin-3-yl)-3-methyl-1-pyridin-3-yl-1,3-dihydro-imidazo[4,5-c]quinolin-2-one], the IC50 was determined as 166 nM.

As for `CN(C)c1ccc(-c2ccc3ncc4c(c3c2)n(-c2cccnc2)c(=O)n4C)cn1` [Example 5.3, 8-(6-Dimethylamino-pyridin-3-yl)-3-methyl-1-pyridin-3-yl-1,3-dihydro-imidazo[4,5-c]quinolin-2-one], the IC50 worked out at 185 nM.

`CCOc1ccc(-c2ccc3ncc4c(c3c2)n(-c2cccnc2F)c(=O)n4C)cn1` [Example 6.1, 8-(6-Ethoxy-pyridin-3-yl)-1-(2-fluoro-pyridin-3-yl)-3-methyl-1,3-dihydro-imidazo[4,5-c]quinolin-2-one]: the IC50 is 56.2 nM.
